We go through 38 compounds from patent US9518015B2, “EP1 receptor ligands” (LABORATORIOS DEL DR. ESTEVE, S.A., priority 2011, dated 2016).

The target in the first assay is T1, human EP1 receptor (Homo sapiens, UniProt P34995).
T1 sequence (P34995 1-402): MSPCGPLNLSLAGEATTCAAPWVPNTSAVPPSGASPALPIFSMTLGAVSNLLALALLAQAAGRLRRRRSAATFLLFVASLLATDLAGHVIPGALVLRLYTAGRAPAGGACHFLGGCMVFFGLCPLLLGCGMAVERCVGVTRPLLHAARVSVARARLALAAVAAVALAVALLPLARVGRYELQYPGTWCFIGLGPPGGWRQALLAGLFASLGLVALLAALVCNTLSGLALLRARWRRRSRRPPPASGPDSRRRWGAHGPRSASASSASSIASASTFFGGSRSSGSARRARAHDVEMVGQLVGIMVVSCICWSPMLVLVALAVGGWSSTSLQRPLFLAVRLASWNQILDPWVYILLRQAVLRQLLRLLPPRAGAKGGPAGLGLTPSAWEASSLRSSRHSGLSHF
The assay is described as follows: Test 2: Measurement of IP1 responses by HTRF, suspended HEK-293 cells stably expressing human EP1 receptors, PGE2 30 nM. To be noted: HEK293, at 10 μM, read-out: Results of Test 2 (Functional assay), % inh. Format: cell-based. Set-up: expressed in transfected cells. The protocol: Test 2: Measurement of IP1 responses by Homogeneous Time Resolved Fluorescence
IP1 measurements on HEK-293 cells that stably expressed human EP1 receptors were performed by using a system based on Homogeneous Time Resolved Fluorescense (HTRF) (Gabriel et al., 2003). This technology allows the direct measurement of IP1 in living cells. The principle of this assay is based on competition between IP1 produced by cells and IP1-d2 conjugate for the binding with monoclonal anti-IP1-cryptate conjugate. The HTRF IP1 kit from CisBio was used according to the manufacturer's directions. The experimental procedure was performed as stated below.
Suspended cells (30,000 cells per well) were added to 96-well culture plates in 40 μl of stimulation buffer (supplied by the kit). Compounds were then added in 20 μl of stimulation buffer and incubated at 37° C. for 15 minutes followed by 10 μl of PGE2 to a final concentration of […]. After 90 minutes at 37° C., the reaction was stopped lysing the cells with a mixture of 15 μl of cryptate and 15 μl of IP1-d2 prepared in the lysis buffer supplied by the manufacturer. Plates were incubated for an additional hour at room temperature and read at 665 nm/620 nm using an UltraEvolution Plate reader (Tecan).
Antagonist percentage inhibition was calculated relating compounds activity to the 0% inhibition of the wells incubated with 10 nM PGE2 alone and 100% inhibition of the wells incubated with 10 nM PGE2 plus 1 μM of the reference antagonist.
For `O=C(O)c1cccc2c1ccn2Cc1cc(Br)ccc1OCc1ccccc1` [Example 2, 1-(2-(benzyloxy)-5-bromobenzyl)-1H-indole-4-carboxylic acid], the inhibition at 10 µM was > 75%. On the same count and under the same terms, with `O=C(O)c1cccc2c1ccn2Cc1cc(C(F)(F)F)ccc1OCc1ccccc1` [Example 3, 1-(2-(benzyloxy)-5-(trifluoromethyl)benzyl)-1H-indole-4-carboxylic acid] the figure was > 75%.

Turning to `O=C(O)c1cccc2c1ccn2Cc1cc(Br)ccc1OCc1ccc(F)cc1` [Example 4, 1-(5-bromo-2-((4-fluorobenzyl)oxy)benzyl)-1H-indole-4-carboxylic acid], the inhibition at 10 µM is > 75%. As for `O=C(O)c1cccc2c1ccn2Cc1cc(Cl)ccc1OCc1ccc(F)cc1` [Example 5, 1-(5-chloro-2-((4-fluorobenzyl)oxy)benzyl)-1H-indole-4-carboxylic acid], the inhibition at 10 µM is > 75%. On the same count and under the same terms, with `O=C(O)c1cccc2c1ccn2Cc1cc(C(F)(F)F)ccc1OCc1ccc(Cl)cc1F` [Example 6, 1-(2-((4-chloro-2-fluorobenzyl)oxy)-5-(trifluoromethyl)benzyl)-1H-indole-4-carboxylic acid] the figure was > 75%. Regarding `O=C(O)c1cccc2c1ccn2Cc1cc(Cl)ccc1OCC1CC1` [Example 7, 1-(5-chloro-2-(cyclopropylmethoxy)benzyl)-1H-indole-4-carboxylic acid], the inhibition at 10 µM is > 75%.

For `O=C(O)c1cccc2c1ccn2Cc1cc(Br)ccc1OCC1CC1` [Example 8, 1-(5-bromo-2-(cyclopropylmethoxy)benzyl)-1H-indole-4-carboxylic acid], the inhibition at 10 µM was > 75%.

The same assay, now with this note: at 10 μM.
“2-((1-(5-chloro-2-(cyclopropylmethoxy)benzyl)-1H-indol-4-yl)oxy)acetic acid [Example 86]”: the “Results of Test 2 (Functional assay), % inh” value is “$$ (45 < % inh < 75)”.

The next assay addresses T1, human EP1 receptor. The assay is described as follows: Test 1: Human EP1 receptor radioligand binding assay ([3H]-PGE2, transfected HEK-293 cell membranes). Also on record: expressed in transfected cells; host or cells: HEK-293 cell membranes. To be noted: at 10 μM. The protocol:
Test 1: Human EP1 Receptor Radioligand Binding Assay
To investigate binding properties of EP1 receptor ligands to human EP1 receptor, transfected HEK-293 cell membranes and [3H]-PGE2 (Perkin Elmer) were used. In 96-well plates the assay was carried out with a total reaction volume of 250 μl, containing 25 μl of membrane suspension (30 μg protein/well), 25 μl of [3H]-PGE2 (10 nM) in either absence or presence of 25 μl of either buffer or PGE2 (10 μM) for total and non-specific binding, respectively. Binding buffer contained 10 mM MES, 1 mM MgCl2 and 1 mM EDTA at pH 6.0. Plates were incubated at 25° C. for 60 minutes. After the incubation period, 200 μl of incubate were transferred to MultiScreen HTS, FB plates (Millipore), filtered and plates were washed 6 times with ice-cold 10 mM MES, 1 mM MgCl2 and 1 mM EDTA at pH 6.0. Filters were dried and counted in a MicroBeta scintillation counter (Perkin-Elmer) using EcoScint liquid scintillation cocktail.
Percentage inhibition was calculated relating compounds activity to the 0% inhibition of the wells incubated with 10 nM [3H]-PGE2 alone (total binding) and 100% inhibition of the wells incubated with 10 nM [3H]-PGE2 plus 10 μM PGE2 (non-specific binding).
“1-(5-chloro-2-((2-chloro-5-fluorobenzyl)oxy)benzyl)-1H-indole-4-carboxylic acid [Example 30]”: the “Results of Test 1 (Binding assay), % inh” value is recorded as “## (45 < % inh < 75)”.

As for `CC(C)(F)COc1ccc(Cl)cc1Cn1ncc2c(C(=O)[O-])ccnc21.[Na+]` [Example 213], the “Results of Test 1 (Binding assay), % inh” value is “# (% inh > 75)”.

The assay is the same for the next values; noted with them: read-out: Results of Test 1 (Binding assay), % inh.
Turning to `O=C(O)c1cccc2c1ccn2Cc1cc(Cl)ccc1OCc1cc(F)c(F)cc1F` [Example 15, 1-(5-chloro-2-((2,4,5-trifluorobenzyl)oxy)benzyl)-1H-indole-4-carboxylic acid], the inhibition at 10 µM is > 75%.

With `O=C(O)c1cccc2c1ccn2Cc1cc(F)ccc1OCc1cc(F)c(F)cc1F` [Example 16, 1-(5-fluoro-2-((2,4,5-trifluorobenzyl)oxy)benzyl)-1H-indole-4-carboxylic acid], the inhibition at 10 µM was > 75%. For the compound `O=C(O)c1cccc2c1ccn2Cc1cc(Br)ccc1OCc1ccc(F)c(F)c1F` [Example 22, 1-(5-bromo-2-((2,3,4-trifluorobenzyl)oxy)benzyl)-1H-indole-4-carboxylic acid], the inhibition at 10 µM fell in the range of 45 to 75%. The same measure, in the same setting: with `O=C(O)c1cccc2c1ccn2Cc1cc(Br)ccc1OCc1ccc(F)cc1C(F)(F)F` [Example 26, 1-(5-bromo-2-((4-fluoro-2-(trifluoromethyl)benzyl)oxy)benzyl)-1H-indole-4-carboxylic acid] the figure was > 75%; with `O=C(O)c1cccc2c1ccn2Cc1cc(Br)ccc1OCc1ccc(F)cc1Cl` [Example 27, 1-(5-bromo-2-((2-chloro-4-fluorobenzyl)oxy)benzyl)-1H-indole-4-carboxylic acid], > 75%. Still for that read-out and setting: with `O=C(O)c1cccc2c1ccn2Cc1cc(Cl)ccc1OCc1cc(F)c(F)cc1Cl` [Example 31, 1-(5-chloro-2-((2-chloro-4,5-difluorobenzyl)oxy)benzyl)-1H-indole-4-carboxylic acid] the figure was 45 to 75%. For `O=C(O)c1cccc2c1ccn2Cc1cc(F)ccc1OCc1cc(F)ccc1F` [Example 32, 1-(2-((2,5-difluorobenzyl)oxy)-5-fluorobenzyl)-1H-indole-4-carboxylic acid], the inhibition at 10 µM was 45 to 75%.

Turning to `O=C(O)c1cccc2c1ccn2Cc1cc(Cl)ccc1OCc1ccccc1` [Example 44, 1-(2-(benzyloxy)-5-chlorobenzyl)-1H-indole-4-carboxylic acid], the inhibition at 10 µM is > 75%. Take `O=C(O)c1cccc2c1ccn2Cc1cc(C(F)(F)F)ccc1OCc1ccc(Br)cc1F` [Example 50, 1-(2-((4-bromo-2-fluorobenzyl)oxy)-5-(trifluoromethyl)benzyl)-1H-indole-4-carboxylic acid]: the inhibition at 10 µM was > 75%. Still for that read-out and setting: with `O=C(O)c1cccc2c1ccn2Cc1cc(F)ccc1OCc1ccc(Br)cc1F` [Example 56, 1-(2-((4-bromo-2-fluorobenzyl)oxy)-5-fluorobenzyl)-1H-indole-4-carboxylic acid] the figure was > 75%; with `O=C(O)c1cccc2c1ccn2Cc1cc(Cl)ccc1OCc1c(F)cc(Cl)cc1F` [Example 57, 1-(5-chloro-2-((4-chloro-2,6-difluorobenzyl)oxy)benzyl)-1H-indole-4-carboxylic acid], > 75%; with `O=C(O)c1ccnc2c1ccn2Cc1cc(Cl)ccc1OCc1ccc(F)cc1F` [Example 91], > 75%. On to `O=C(O)c1ncnc2c1ccn2Cc1cc(Cl)ccc1OCc1ccc(Cl)cc1F` [Example 98], for which the inhibition at 10 µM was > 75%.

`COc1ccc(OCc2ccc(F)cc2F)c(Cn2ccc3c(C(=O)O)cccc32)c1` [Example 101, sodium 1-{2-[(2,4-difluorobenzyl)oxy]-5-methoxybenzyl}-1H-indole-4-carboxylate]: the inhibition at 10 µM was in the range of 45 to 75%.

Consider `CCCOc1ccc(F)cc1Cn1ccc2c(C(=O)O)cccc21` [Example 104], for which the inhibition at 10 µM fell in the range of 45 to 75%. The same measure, in the same setting: with `O=C(O)c1cccc2c1ccn2Cc1cc(Cl)ccc1OC1CCCC1` [Example 105] the figure was > 75%. Still for that read-out and setting: with `CCCOc1ccc(Cl)cc1Cn1ccc2c(C(=O)O)cccc21` [Example 106] the figure was 45 to 75%; with `CC(C)COc1ccc(F)cc1Cn1ccc2c(C(=O)O)cccc21` [Example 108], 45 to 75%. Still for that read-out and setting: with `O=C(O)c1cccc2c1ccn2Cc1cc(Cl)ccc1OCCF` [Example 111] the figure was 45 to 75%; with `O=C(O)c1cccc2c1ccn2Cc1cc(Cl)ccc1OCC(F)(F)F` [Example 112], > 75%. With `O=C(O)c1cccc2c1cnn2Cc1cc(Cl)ccc1OC1CCCC1` [Example 133], the inhibition at 10 µM is > 75%.

Take `CCCOc1ccc(F)cc1Cn1ncc2c(C(=O)O)cccc21` [Example 135]: the inhibition at 10 µM was in the range of 45 to 75%. The same measure, in the same setting: with `O=C(O)c1ccc(F)c2c1ccn2Cc1ccccc1OCc1ccc(F)cc1F` [Example 140] the figure was 45 to 75%; with `CC(C)(F)COc1ccc(Cl)cc1Cn1cc(CCO)c2c(C(=O)O)cccc21` [Example 158], > 75%.

For the compound `O=C(O)c1cccc2c1c(CCO)cn2Cc1cc(F)ccc1OCc1ccc(F)cc1F` [Example 159], the inhibition at 10 µM is > 75%.

Consider `CC(C)C(C)Oc1ccc(Cl)cc1CN1CCCc2c(C(=O)O)cccc21` (centres unmarked) [Example 176], for which the inhibition at 10 µM lay within 45 to 75%.

Consider `COCCOc1ccc(Cl)cc1CN1CCc2c(C(=O)O)cccc21` [Example 201], for which the inhibition at 10 µM lay in the range of 45 to 75%. Still for that read-out and setting: with `CC(C)(C)COc1ccc(Cl)cc1CN1CCc2c(C(=O)O)cccc21` [Example 203] the figure was 45 to 75%.
